Source: patent US20250041377A1, “PHARMACEUTICAL USE” (ENLITISA (SHANGHAI) PHARMACEUTICAL CO., LTD., priority 2018, published 2025)
Where a SMILES comes first, the peptide text is derived from it. [ ]: non-standard residue; d: D form. Hyp = O=C(O)[CH]1C[CH](O)CN1

Assays:
Assay type in all cases: in vivo, human
[1] = test system: closed comedones; test: Cream to treat closed comedones; settings: cream 0.1 mg/g, morning and evening
Method: Compound B (10 mg; see Example 1 above) was first dissolved in WFI (10 g).
A mixture was then made comprising sorbitan stearate (2 g), cetyl alcohol (4 g), octanoic/capric glyceride (6 g) and glyceryl monostearate (3 g) (all Sinopharm Chemical Reagent Co. Ltd.), which was stirred and heated to 85° C. to melt the mixture completely.
Glycerin (5 g; Sinopharm Chemical Reagent Co. Ltd.) and ammonium acryloyldimethyltaurate/VP copolymer (0.13 g; Clariant Chemical (Guangzhou) Co., Ltd., China) were mixed with 68.86 g of WFI. This mixture was stirred and heated to 85° C. to provide a homogeneous colloidal suspension.
The copolymer/water mixture was added to the sorbitan stearate-containing mixture, which was then quickly stirred using emulsification equipment for 5 minutes. The resultant emulsion was cooled to room temperature.
The Compound B solution was then added to the resultant mixture with stirring to obtain the finished cream. The concentration of Compound B in the final cream was 0.1 mg/g.
Subjects with closed comedones (blocked pores) and in an acute attacking period of acne were enrolled in the study. Symptoms included sebaceous glands blocked by keratinocytes, forming a slightly hard lump and a protruding white head.
The cream was evenly smeared in the morning and evening after facial cleansing.

[2] = test system: operation pain during laser surgery; test: Liquid spray to relieve operational pain during laser surgery
Method: The enrolled subject was required to use 1 mL of a liquid spray comprising the same formulation as that described in Example 14 above in a water spray bottle on half of their face before and after a lattice laser operation to remove of facial melanin.

[3] = test system: allergic skin (redness, itching, swelling); test: Liquid spray to treat allergic dermatitis
Method: Compound B (see Example 1 above) was dissolved in Water for Injection (WFI; prepared from a TC-RO-0.25/h-2 Water Treatment System, Yangzhou Tiancheng Water Treatment Devices & Engineering Co., Ltd., Yangzhou, China). The concentration was 0.3 mg/mL.
The enrolled subjects in the study had allergic skin. Prior to treatment, the patients presented symptoms including skin redness, itching and swelling. Subjects were required to use the liquid spray in the morning and the evening after facial cleansing.

[4] = test system: common cold; test: Liquid spray to treat common cold
Method: Compound B was dissolved in Injection water (WFI; from a TC-RO-0.25 T/h-2 water treatment system, Yangzhou Tiancheng Water Treatment Devices & Engineering Co., Ltd., Yangzhou, China). The concentration was 0.5 mg/mL. 5 mL was loaded into a plastic water spray bottle.
The enrolled subject in the study was inflicted with a common cold for 2 days prior to treatment. Other cold treatments were not used before treatment. The subject, who presented a cough, a sore throat and a loss of voice, was required to use the liquid spray (3 to 5 presses each time, in the morning and evening.

With `CC(N)C(=O)NC(CCCCN)C(=O)N1CCCC1C(=O)NC(CO)C(=O)NC(Cc1ccc(O)cc1)C(=O)N1CC(O)CC1C(=O)N1CC(O)CC1C(=O)NC(C(=O)NC(Cc1ccc(O)cc1)C(=O)NC(CCCCN)C(=O)O)C(C)O` (stereo not drawn) [Compound B, Ala-Lys-Pro-Ser-Tyr-Hyp-Hyp-Thr-Tyr-Lys] (H-AKPSY[Hyp][Hyp]TYK-OH; configuration not given here) the “lumps of closed comedones” value [1] was “disappeared after 1 day of use”, the “pain during lattice laser operation” value ([2]; 1 mL liquid spray 0.5 mg/mL on half of face before and after operation) was “did not feel pain during the operation” and the “pain after lattice laser operation” value ([2]; sprayed half of face, unsprayed half: pain lasted about 2 hours) was “felt no pain after the operation”. For the same compound, the “time to relief of itching” value ([3]; liquid spray 0.3 mg/mL in Water for Injection, first use, subjects with allergic skin) was no more than 8 min, the “capillary congestion, facial redness and swelling” value ([3]; liquid spray 0.3 mg/mL, morning and evening, after 1 day of use) was “no longer red and swollen after 1 day of use” and the throat pain ([4]; liquid spray 0.5 mg/mL in WFI, 3 to 5 presses morning and evening, after the first use) was “throat pain was relieved after the first use”. For the same compound, the “throat pain and voice” value ([4]; liquid spray 0.5 mg/mL, after the second use) was “throat was no longer painful and could speak”.
